{"source": "patent US12251381B2", "about": "“Aripiprazole dosing strategy” (Alkermes Pharma Ireland Limited, priority 2018, dated 2025)", "test": "Phase 1 study: injection-site evaluation (injection-site reactions)", "type": "in vivo, human", "details": "for patients who experienced ISRs / patients with injection-site pain: associated with the named injection; for Injection-site discomfort / Injection-site erythema / Injection-site induration / Injection-site pain / Injection-site swelling / Patients with at least one ISR: reactions associated with the named injection on day 1", "experimental": "The duration of the study was approximately 6 months and consisted of screening, inpatient dosing, outpatient, and follow-up period (FIG. 1). […] A total of 160 patients were planned to be enrolled and randomized 1:1:1:1 to one of four treatment groups, as follows: 1-day initiation regimen groups (30 mg oral aripiprazole plus ALNCD, plus either AL 441 or 882 mg [on day 1] then 20 days of oral placebo), or 21-day initiation regimen groups (15 mg oral aripiprazole plus placebo IM, plus either AL 441 or 882 mg [on day 1] followed by 20 days of oral aripiprazole 15 mg/day). […] ALNCD or placebo were administered as IM injections in the gluteal muscle. For the AL doses, a single 441 mg dose was given in the deltoid muscle or a single 882 mg dose in the gluteal muscle contralateral to the ALNCD (or placebo) injection. All safety analyses were performed using observed data from the safety population, and measurements included adverse events (AEs), vital signs measurements, weight, laboratory test results, ECG findings, Columbia-Suicide Severity Rating Scale (C-SSRS) responses, movement disorder measures, CGI-S responses, and injection-site evaluation. AEs were assessed daily on days 1-15, every other day from days 17-25, on days 28 and 31, once-weekly from days 35 to 85, and on days 113 and 141. Injection-site evaluations were carried out daily on days 1-15, every other day from days 17-25, and on day 28. The injection site and surrounding area were evaluated with each injection (separately for the ALNCD or placebo injection site and AL site). Any observed injection-site reactions were followed until resolution.", "data": [{"smiles": "CCCCCCCCCCCC(=O)OCN1C(=O)CCc2ccc(OCCCCN3CCN(c4cccc(Cl)c4Cl)CC3)cc21", "note": "[AL, (7-(4-(4-(2,3-dichlorophenyl)piperazin-1-yl)butoxy)-2-oxo-3,4-dihydroquinolin-1(2H)-yl)methyl dodecanoate]", "values": [{"measurement": "severity of Injection-Site Reactions (ISRs)", "setting": "all ISRs associated with the injection", "value": "mild-to-moderate"}, {"measurement": "patients who experienced ISRs", "setting": "listed as AL 441 mg", "value": 22.8, "unit": "%"}, {"measurement": "patients with injection-site pain", "setting": "listed as AL 441 mg", "value": 20.3, "unit": "%"}, {"measurement": "patients who experienced ISRs", "setting": "listed as AL 882 mg", "value": 18.3, "unit": "%"}, {"measurement": "patients with injection-site pain", "setting": "listed as AL 882 mg", "value": 18.3, "unit": "%"}, {"measurement": "Injection-site discomfort", "setting": "listed as AL 441 mg", "value": "1 (1.3) n (%)"}, {"measurement": "Injection-site erythema", "setting": "listed as AL 441 mg", "value": "1 (1.3) n (%)"}, {"measurement": "Injection-site induration", "setting": "listed as AL 441 mg", "value": "4 (5.1) n (%)"}, {"measurement": "Injection-site pain", "setting": "listed as AL 441 mg", "value": "16 (20.3) n (%)"}, {"measurement": "Injection-site swelling", "setting": "listed as AL 441 mg", "value": "2 (2.5) n (%)"}, {"measurement": "Patients with at least one ISR", "setting": "listed as AL 441 mg", "value": "18 (22.8) n (%)"}, {"measurement": "Injection-site discomfort", "setting": "listed as AL 882 mg", "value": "0 n (%)"}, {"measurement": "Injection-site erythema", "setting": "listed as AL 882 mg", "value": "0 n (%)"}, {"measurement": "Injection-site induration", "setting": "listed as AL 882 mg", "value": "2 (2.4) n (%)"}, {"measurement": "Injection-site pain", "setting": "listed as AL 882 mg", "value": "15 (18.3) n (%)"}, {"measurement": "Injection-site swelling", "setting": "listed as AL 882 mg", "value": "1 (1.2) n (%)"}, {"measurement": "Patients with at least one ISR", "setting": "listed as AL 882 mg", "value": "15 (18.3) n (%)"}]}]}
